From ChEMBL document CHEMBL6103537 (J Med Chem, 2025)
Active and inactive are the calls of the source. No cut-off for these calls is given here.

Legend:
[1] = biological target: T1, Protein cereblon/Signal transducer and activator of transcription 6 (Homo sapiens, UniProt P42226+Q96SW2); assay: PROTAC activity at STAT6/CRBN in human L-1236 cells assessed as reduction in STAT6 level incubated for 24 hrs by Western blot analysis; format: cell-based; details: dose 10.0 µM
[2] = Metabolic stability in monkey liver microsome assessed as half life measured upto 60 mins in presence of NADPH by LC-MS/MS analysis; format: ADME, Macaca mulatta; details: rhesus monkey, liver microsomes
[3] = Metabolic stability in mouse liver microsome assessed as parent compound remaining measured at 30 mins in presence of NADPH by LC-MS/MS analysis; format: ADME; details: liver microsomes, read-out: Stability
[4] = biological target: T1, Protein cereblon/Signal transducer and activator of transcription 6; assay: PROTAC activity at STAT6/CRBN in human PBMC cells assessed as reduction in STAT6 level at 10 uM incubated for 18 hrs by Western blot analysis relative to control; format: cell-based
[5] = Stability in mouse plasma assessed as parent compound remaining measured at 30 mins by LC-MS/MS analysis; format: ADME, cell-free; details: read-out: Stability
[6] = Stability in mouse plasma assessed as parent compound remaining measured at 15 mins by LC-MS/MS analysis; format: ADME, cell-free; details: read-out: Stability
[7] = Metabolic stability in human liver microsome assessed as parent compound remaining measured at 5 mins in presence of NADPH by LC-MS/MS analysis; format: ADME; details: liver microsomes, read-out: Stability
[8] = Stability in human plasma assessed as parent compound remaining measured at 15 mins by LC-MS/MS analysis; format: ADME, cell-free; details: read-out: Stability
[9] = Stability in monkey plasma assessed as half life measured upto 60 mins by LC-MS/MS analysis; format: ADME, cell-free, Macaca mulatta; details: rhesus monkey
[10] = Metabolic stability in human liver microsome assessed as parent compound remaining measured at 30 mins in presence of NADPH by LC-MS/MS analysis; format: ADME; details: liver microsomes, read-out: Stability
[11] = Metabolic stability in dog liver microsome assessed as parent compound remaining measured at 45 mins in presence of NADPH by LC-MS/MS analysis; format: ADME, Canis lupus familiaris; details: liver microsomes, read-out: Stability
[12] = Metabolic stability in monkey liver microsome assessed as parent compound remaining measured at 15 mins in presence of NADPH by LC-MS/MS analysis; format: ADME, Macaca mulatta; details: rhesus monkey, liver microsomes, read-out: Stability
[13] = Metabolic stability in dog liver microsome assessed as parent compound remaining measured at 5 mins in presence of NADPH by LC-MS/MS analysis; format: ADME, Canis lupus familiaris; details: liver microsomes, read-out: Stability
[14] = biological target: T1, Protein cereblon/Signal transducer and activator of transcription 6; assay: PROTAC activity at STAT6/CRBN in human MV4-11 cells assessed as reduction in STAT6 level at 5 uM incubated for 12 hrs by Western blot analysis relative to control; format: cell-based
[15] = Stability in rat plasma assessed as parent compound remaining measured at 30 mins by LC-MS/MS analysis; format: ADME, cell-free; details: read-out: Stability
[16] = Stability in dog plasma assessed as parent compound remaining measured at 30 mins by LC-MS/MS analysis; format: ADME, cell-free, Canis lupus familiaris; details: read-out: Stability
[17] = Metabolic stability in monkey liver microsome assessed as parent compound remaining measured at 30 mins in presence of NADPH by LC-MS/MS analysis; format: ADME, Macaca mulatta; details: rhesus monkey, liver microsomes, read-out: Stability
PBMC = assay: Downregulation of STAT4 level in human PBMC cells at 5 uM incubated for 18 hrs by Western blot analysis relative to control; format: functional, cell-based
[18] = biological target: T1, Protein cereblon/Signal transducer and activator of transcription 6; assay: PROTAC activity at STAT6 at Y641 residue/CRBN in human L-1236 cells assessed as reduction in STAT6 level incubated for 24 hrs by Western blot analysis; format: cell-based; details: dose 10.0 µM
[19] = Stability in rat plasma assessed as half life measured upto 60 mins by LC-MS/MS analysis; format: ADME, cell-free
[20] = biological target: Protein cereblon/Signal transducer and activator of transcription 1-alpha/beta (Homo sapiens) (UniProt P42224+Q96SW2); assay: PROTAC activity at STAT1/CRBN in human MV4-11 cells assessed as reduction in STAT1 level at upto 10 uM incubated for 12 hrs by Western blot analysis; format: cell-based
[21] = Stability in dog plasma assessed as parent compound remaining measured at 5 mins by LC-MS/MS analysis; format: ADME, cell-free, Canis lupus familiaris; details: read-out: Stability
[22] = Downregulation of KRT1 level in human PBMC cells at 5 uM incubated for 18 hrs by Western blot analysis relative to control; format: functional
[23] = Metabolic stability in rat liver microsome assessed as parent compound remaining measured at 15 mins in presence of NADPH by LC-MS/MS analysis; format: ADME; details: liver microsomes, read-out: Stability
[24] = biological target: T1, Protein cereblon/Signal transducer and activator of transcription 6; assay: PROTAC activity at STAT6/CRBN in human MV4-11 cells assessed as reduction in STAT6 level incubated for 12 hrs by Western blot analysis; format: cell-based
[25] = Stability in human plasma assessed as parent compound remaining measured at 5 mins by LC-MS/MS analysis; format: ADME, cell-free; details: read-out: Stability
[26] = Stability in mouse plasma assessed as parent compound remaining measured at 60 mins by LC-MS/MS analysis; format: ADME, cell-free; details: read-out: Stability
[27] = biological target: Protein cereblon/Signal transducer and transcription activator 6 (Mus musculus) (UniProt P52633+Q8C7D2); assay: In vivo PROTAC activity at STAT6/CRBN in BALB/c mouse assessed as reduction in STAT6 level in liver at 200 mg/kg, ip measured at 2 to 24 hrs by Western blot analysis; format: functional, organism-based; design: scale not given: the % may be the effect or the level left; details: time 2-24 hrs
[28] = Metabolic stability in monkey liver microsome assessed as parent compound remaining measured at 45 mins in presence of NADPH by LC-MS/MS analysis; format: ADME, Macaca mulatta; details: rhesus monkey, liver microsomes, read-out: Stability
[29] = Metabolic stability in human liver microsome assessed as parent compound remaining measured at 15 mins in presence of NADPH by LC-MS/MS analysis; format: ADME; details: liver microsomes, read-out: Stability
[30] = Downregulation of EPB41L1 level in human PBMC cells at 5 uM incubated for 18 hrs by Western blot analysis relative to control; format: functional
[31] = biological target: T1, Protein cereblon/Signal transducer and activator of transcription 6; assay: PROTAC activity at STAT6 at Y641 residue/CRBN in human L-1236 cells assessed as reduction in STAT6 level at 10 uM incubated for 24 hrs by Western blot analysis; format: cell-based
[32] = biological target: Protein cereblon/Signal transducer and activator of transcription 5A/Signal transducer and activator of transcription 5B (Homo sapiens) (UniProt P42229+P51692+Q96SW2); assay: PROTAC activity at STAT5 at residue Y694/CRBN in human MV4-11 cells assessed as reduction in STAT5 level at upto 10 uM incubated for 12 hrs by Western blot analysis; format: cell-based
[33] = Stability in monkey plasma assessed as parent compound remaining measured at 15 mins by LC-MS/MS analysis; format: ADME, cell-free, Macaca mulatta; details: rhesus monkey, read-out: Stability
[34] = biological target: T1, Protein cereblon/Signal transducer and activator of transcription 6; assay: PROTAC activity at STAT6/CRBN in human MV4-11 cells assessed as reduction in STAT6 level at 2 uM measured upto 1200 mins in presence of AK-068 by HiBiT bioluminescence assay; format: cell-based
[35] = Stability in monkey plasma assessed as parent compound remaining measured at 120 mins by LC-MS/MS analysis; format: ADME, cell-free, Macaca mulatta; details: rhesus monkey, read-out: Stability
[36] = Stability in human plasma assessed as half life measured upto 60 mins by LC-MS/MS analysis; format: ADME, cell-free
[37] = Stability in human plasma assessed as parent compound remaining measured at 30 mins by LC-MS/MS analysis; format: ADME, cell-free; details: read-out: Stability

Activity [1]: Dose-dependent-effect
half-life [2]: 1.05 h
remaining at 0.5 h [3]: 94%
Emax [4]: > 90%
remaining at 0.5 h [5]: 96%
remaining at 0.25 h [6]: 100%
remaining at 5 min [7]: 94%
remaining at 0.25 h [8]: 94%
half-life [9]: > 2 h
remaining at 0.5 h [10]: 92%
remaining at 0.75 h [11]: 93%
remaining at 0.25 h [12]: 83%
remaining at 5 min [13]: 97%
Emax [14]: > 95%
remaining at 0.5 h [15]: 85%
remaining at 0.5 h [16]: 75%
remaining at 0.5 h [17]: 70%
Activity [18]: Dose-dependent-effect
half-life [19]: > 2 h
Activity [20]: No effect
remaining at 5 min [21]: 82%
remaining at 0.25 h [23]: 98%
DC50 [24]: 1 nM
remaining at 5 min [25]: 79%
remaining at 1 h [26]: 91%
Activity [27]: > 90%
remaining at 0.75 h [28]: 61%
remaining at 0.25 h [29]: 98%
Activity [31]: No effect
Activity [32]: No effect
remaining at 0.25 h [33]: 111%
Activity [34]: Active
remaining at 2 h [35]: 82%
half-life [36]: > 2 h
remaining at 0.5 h [37]: 82%
SMILES: CC(C)(C)[C@H](NC(=O)c1cc2cc(C(F)(F)P(=O)(O)O)ccc2s1)C(=O)N1C[C@@H](OCCCCCC#Cc2cccc3c2CN(C2CCC(=O)NC2=O)C3=O)C[C@H]1C(=O)N1CCO[C@H](c2ccccc2)C1 (stereo partly drawn)
Activity (PBMC): inactive
Activity [22]: 59%
Activity [30]: 60%
